One molecule from patent US7041698B2, “Hepatitis C virus inhibitors” (Bristol-Myers Squibb Company, priority 2002, dated 2006) can be followed below.

A word on the EC50: it is the concentration giving half of the maximal effect.

This assay concerns HCV replicon in Huh7 cells. The assay is described as follows: HCV replicon cell-based assay. The note with it: Hepatitis C virus. Also noted: species or system HCV strain 1B. Summed up:
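Huh7 cells carrying a genotype 1b subgenomic replicon (NS3-NS5B, neo) treated 4 days at 37° C with compound (0.5% DMSO final). NS3 protease activity read in lysates with 10 μM FRET peptide (340/490 nm, kinetic), giving EC50. Confirmed by Taqman qRT-PCR of HCV RNA and a Renilla luciferase replicon.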
Background: Replicon systems follow genome replication, usually without infectious particles.

Read-outs that look alike come from different tables or passages of the source.

In the case of `C=CC1C[C@]1(NC(=O)[C@@H]1C[C@@H](OC(=O)Nc2ccccc2-c2ccccc2)CN1C(=O)[C@@H](NC(=O)OC(C)(C)C)C(C)(C)C)C(=O)NS(=O)(=O)C1CC1` (stereo partly drawn) [Compound 8, BocNH-P3(t-BuGly)-P2(Hyp(O—CO(NH-biphen-2-yl)))-P1(1R,2S VinylAcca)—CONHSO2Cyclopropane], the EC50 (Huh-7, 96 h, HCV replicon, 4 days, read-out: EC50 range) was in the range of 100 to 1000 nM and the EC50 (Huh-7, HCV replicon, read-out: EC50 value in the replicon assay) worked out at 284 nM.
